Molecules are shown by their SMILES. “And” between values parts separate entries of the source, which are not always exact repeats. Equal values may be shown once. Inconclusive results are not listed. The source made the active and inactive calls.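 How the source made its calls: active means fitted half-maximal concentration of signal decrease at or below twice the sample's top tested concentration; inconclusive means flat curve between -70 and -30 percent, or poor fit; inactive means flat within 30 percent, signal rise, or potency above limit.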 Positions of bridges follow the written chain, without caps; N, C: chain ends. Non-standard residues stand in square brackets, D forms with d. Residues, ends and D or L forms follow the SMILES beside them. ξ: configuration not given here. *: point of attachment. Heptanoyl(6-Me) = CC(C)CCCCC(=O)*; ξDab = NCCC(N)C(=O)O; ξT = CC(O)C(N)C(=O)O

The AC50 is the concentration giving half of the maximal activity seen.

This experiment has as its target T. gondii ME49Luc in IFN-y HeLa, luciferase, 72 h. As to the kind of experiment: inhibitors of Toxoplasma growth in IFN-γ-primed HeLa – cell-based, ME49Luc, luciferase, 72 h, dose response (AID 1259418).
In the case of `CC(C)NC(=O)N1CC(=O)N2[C@H](C1)[C@@H](c1ccc(/C=C/c3ccccc3)cc1)[C@@H]2CO`, the AC50 was 10.4 µM.
Take `Cc1ccc(Cn2c(CN3CCC(C(=O)NCCCN4CCCC4)CC3)cc3ccccc32)cc1`: the AC50 is 13.4 µM.
With `CCCNC(=O)[C@@H]1[C@@H](CO)[C@@H]2Cn3c(ccc(/C=C/c4ccccc4)c3=O)[C@@H]2N1CC1CC1` the figure was 18.5 µM.
As for `CCc1ccccc1S(=O)(=O)N1CCc2nc(-c3ccc(OC)cc3)sc2C1`, the figure is 7.8 µM and 14.9 µM.
As for `O=C(NC1CCCC1)N1CCCCN2[C@@H](CO)[C@H](c3ccc(-c4cccnc4)cc3)[C@@H]2C1`, the figure is 23.3 µM; as for `C1=C(c2ccccc2)CC(c2ccccc2)=NN=C1c1ccccc1`, 15.6 µM; as for `CCN1CCN(Cc2ccc(Nc3nc(-c4ccc(OC)cc4)nc4ccccc34)cc2)CC1`, 11.3 µM and 12.5 µM.
As to `O=C(CCC1N=C2c3ccccc3N=C(SCc3ccc(F)cc3)N2C1=O)NCc1ccccc1` (stereo unspecified), the AC50 was 31.8 µM.
As for `COc1ccc(NC(=O)CN2CCC3(CC2)N=C(c2cccc(C)c2)C(=O)N3)c(OC)c1`, the figure is 29.4 µM; as for `CN1C(=O)CCc2cc(NC(=O)C(F)(F)F)ccc21`, 17.1 µM.
As for `Cc1ccc(S(=O)(=O)N2CCC3(CC2)NCCN=C3NCc2ccccc2)c(C)c1`, the figure is 19.2 µM; as for `O=C(Nc1ccc(F)cc1)N1CC(=O)N2[C@H](C1)[C@@H](c1ccc(-c3cccc(F)c3)cc1)[C@@H]2CO`, 8.5 µM and 5.04 µM; as for `O=S1(=O)c2ccccc2O[C@H]2CCN(Cc3ccc(Cl)cc3)CC[C@H]2N1CC1CC1`, 32 µM.
Take `CCCNC(=O)c1cc(-c2cnc(NCc3ccccc3)nc2)cn1C`: the AC50 was 7.07 µM and 17.3 µM.
With `O=C1CCc2cc(S(=O)(=O)N3CCc4ccccc43)cc3c2N1CCC3` the figure was > 39 µM (inactive); with `COc1cccc(NC(=O)N2CC(=O)N3[C@H](CO)[C@H](c4ccc(C#CCC5CCCC5)cc4)[C@@H]3C2)c1`, 17.6 µM.
As for `CCc1c(C)sc2c1CCN(Cc1nc(-c3cccc(C)c3)oc1C)C2c1ccccc1` (stereo unspecified), the figure is 9.68 µM; as for `COc1cc(NC(=O)Nc2ccc(-c3nc(-c4cc(C)ccc4C)co3)cc2)cc(OC)c1OC`, 14.5 µM; as for `NC(N)=N/N=C/c1c(Cl)cccc1Cl`, 19.7 µM.
As to `CCOc1ccc(-c2nc(CN(c3ccccc3)S(=O)(=O)c3cccs3)c(C)o2)cc1`, the AC50 is 15.2 µM.
As for `O=C(NCc1ccc(F)cc1F)c1cc(-c2cnc(N3CCCC3)nc2)cn1CC1CC1`, the figure is 13.2 µM; as for `COc1ccccc1NC(=O)N1C[C@H](O)COC[C@@H]2O[C@@H](CC(=O)N3CCC(Cc4ccccc4)CC3)CC[C@H]21`, 22.9 µM and > 39 µM (inactive).
With `COc1ccccc1-c1nc(CN(c2ccccc2OC)S(=O)(=O)c2ccc(C)cc2)c(C)o1` the figure was 12.4 µM.
Regarding `Cc1ccc(-c2coc(-c3ccc(NS(=O)(=O)c4ccc(F)c(Cl)c4)cc3)n2)c(C)c1`, the AC50 was 24.7 µM.
With `COc1cccc(-c2ccc(C3[C@@H]4CN(Cc5ccccn5)C[C@H]3N4)cc2)c1` (stereo partly specified) the figure was 15.6 µM; with `CCCN1CCN(CCCNc2nc(-c3ccc(OC)cc3)nc3ccccc23)CC1`, 21.9 µM.
With `CCCNC(=O)N1CCN(Cc2nc(-c3ccc(C)cc3)oc2C)CC1` the figure was 26.1 µM.
As for `COc1ccc(OCC(=O)N2CCC3(CC2)Nc2cc(OC)ccc2-n2cccc23)cc1`, the figure is 38.3 µM; as for `Cc1ccc(CSC2=Nc3ccccc3C3=NC(CCC(=O)NCc4ccc5c(c4)OCO5)C(=O)N23)c(C)c1` (stereo unspecified), 27.2 µM; as for `Cc1ccc(NC(=O)CN2CCC3(CC2)N=C(c2cccc(Cl)c2)C(=O)N3)cc1`, 28 µM.
In the case of `c1ccc2c(Oc3nc(Nc4ccc(N5CCOCC5)cc4)c4ncn(C5CCCCC5)c4n3)cccc2c1`, the AC50 is 16.4 µM.
As to `CCC(C)Nc1nc(-c2ccc(OC)cc2)nc2ccccc12` (stereo unspecified), the AC50 was > 39 µM (inactive).
As to `CCc1ccc(S(=O)(=O)N2CCC3(CC2)NCCN=C3NCc2ccccc2)cc1`, the AC50 was 21.8 µM.
As for `O=C(Cc1ccccn1)N1CC(=O)N2[C@H](CO)[C@@H](c3ccc(C#CCC4CCCC4)cc3)[C@@H]2C1`, the figure is 9.77 µM and 15.5 µM.
`O=C(Cc1cccnc1)N1CC(=O)N2[C@H](CO)[C@H](c3ccc(C#CC4CCCCC4)cc3)[C@H]2C1`: the AC50 is 19.4 µM.
Consider `CCOc1ccc(-c2nc(CN3CCN(C(=O)NC4CCCC4)CC3)c(C)o2)cc1`, for which the AC50 was 29.5 µM.
As to `COc1cccc(NC(=O)N2CCc3nc(-c4ccc(C)cc4)sc3C2)c1`, the half-maximal activity concentration (AC50) is 26.8 µM.
With `CCCCC(=O)N1CCC2(CC1)Nc1ccc(Cl)cc1-n1cccc12` the figure was > 39 µM (inactive).
Take `C[C@@H]1CN(Cc2ccc(F)cc2)CCN1C(=O)COc1ccc(Cl)cc1NC(N)=O`: the AC50 is > 39 µM (inactive).
With `COc1cccc(-c2nc3c(s2)CN(C(=O)Nc2ccc(Cl)cc2)CC3)c1` the figure was > 20 µM (inactive).
As for `CC(C)CNC(=O)c1cc(-c2ccn(CC3CC3)n2)n2ccccc12`, the figure is 13.3 µM; as for `Cc1cccc(C(=O)Nc2c(C(=O)NCc3cccnc3)[nH]c3ccccc23)c1`, > 39 µM (inactive).
As to `COc1ccc(S(=O)(=O)N2CCc3c([nH]c4ccccc34)C2c2cc(F)ccc2F)cc1` (stereo unspecified), the AC50 was 17.1 µM.
Regarding `CCCCCCCCCCCCCCCC[n+]1ccccc1`, the AC50 was 11.5 µM.
With `CC(C)CCN1Cc2c(C(=O)Nc3cccc(F)c3)ncn2-c2ccccc2S1(=O)=O` the figure was 13 µM; with `O=C(NC1CCCC1)N1CC(=O)N2[C@H](CO)[C@H](c3ccc(C4=CCCCC4)cc3)[C@@H]2C1`, 35.3 µM.
As for `O=C(CC1N=C2c3ccccc3N=C(SCc3ccc(Cl)cc3)N2C1=O)NCCc1ccccc1` (stereo unspecified), the figure is 20.4 µM; as for `CC(C)C#Cc1ccc([C@H]2[C@@H](C#N)N(C(=O)c3cccc(F)c3)[C@H]2CO)cc1`, > 39 µM (inactive).
Regarding `O=C(NCCc1csc(-c2ccccc2)n1)C1CCN(C(=O)c2ccc(F)c(Cl)c2)CC1`, the AC50 is 5.61 µM.
With `CCCNC(=O)[C@H]1[C@H](CO)[C@H]2Cn3c(ccc(C4=CCCCC4)c3=O)[C@H]2N1Cc1ccccc1F` the figure was 8.99 µM; with `COc1ccc(S(=O)(=O)N2CSC[C@@H]2C(=O)NCCc2csc(-c3ccccc3)n2)cc1`, 17.6 µM; with `Cc1ccc(Nc2nc(-c3ccccc3Cl)nc3ccccc23)cc1`, 14.2 µM.
For the compound `COc1ccc(-c2nc(CN(c3ccccc3)S(=O)(=O)c3ccccc3)c(C)o2)cc1`, the AC50 is 9.08 µM.
As to `COc1ccc(S(=O)(=O)N2CCC(C(=O)NCCc3csc(-c4ccccc4)n3)CC2)cc1`, the AC50 was > 20 µM (inactive).
With `Cc1cc(C(=O)Nc2ccc3c(c2)C(=O)N(C)[C@@H]2CC[C@@H](CC(=O)NCc4ccc(-c5ccccc5)cc4)O[C@@H]2CO3)no1` the figure was 20.8 µM; with `O=C(c1ccc(-n2nc(C(F)(F)F)c3c2CCCC3)cc1)N1CCN(c2cccc(Cl)c2)CC1`, 8.82 µM; with `Cc1ccc(CSC2=Nc3ccccc3C3=NC(CCC(=O)NCc4cccs4)C(=O)N23)c(C)c1` (stereo unspecified), 21.4 µM.
For `CCCCNc1ncnc2c1cnn2-c1ccc(C)cc1C`, the half-maximal activity concentration (AC50) was 28.1 µM.
As for `O=S(=O)(c1ccc(Cl)s1)N1CCC2(CC1)NCCN=C2NCc1ccccc1F`, the figure is 17.9 µM; as for `CC(C)n1c(C(=O)Nc2cccc(F)c2)nc2c1CCN(Cc1ccccc1)C2`, 9.4 µM; as for `O=C(CC1N=C2c3ccccc3N=C(SCc3ccccc3F)N2C1=O)NCc1cccs1` (stereo unspecified), 18.4 µM.
Regarding `CCOc1ccc(-c2nc(CN(c3ccccc3OC)S(=O)(=O)c3cccs3)c(C)o2)cc1`, the AC50 is 8.23 µM.
As for `COc1cc2nc(N3CCN(C(=O)c4ccco4)CC3)nc(N)c2cc1OC`, the figure is 18.4 µM; as for `CCCNC(=O)N1[C@H](CO)[C@@H](c2ccc(-c3ccccc3F)cc2)[C@@H]1C#N`, 19.9 µM; as for `CCOc1ccc(-c2nc(CN(c3ccccc3OC)S(=O)(=O)c3ccccc3)c(C)o2)cc1`, 8.3 µM.
On to `Cc1ccccc1-c1ccc(C2[C@@H]3CN(C(=O)C4CCOCC4)C[C@H]2N3)cc1` (stereo partly specified), for which the AC50 was 26.4 µM.
In the case of `Cc1nc(OCC(=O)Nc2cc(F)ccc2F)c2ccccc2n1`, the AC50 is > 39 µM (inactive).
As for `CC(C)CCCCC(=O)NC(CCN)C(=O)NC(C(=O)NC(CCN)C(=O)NC1CCNC(=O)C(C(C)O)NC(=O)C(CCN)NC(=O)C(CCN)NC(=O)[C@H](CC(C)C)NC(=O)[C@@H](CC(C)C)NC(=O)C(CCN)NC1=O)C(C)O` (stereo partly drawn) ({Heptanoyl(6-Me)}-[ξDab][ξT][ξDab][ξDab][ξDab][dL]L[ξDab][ξDab][ξT]; lactam 4-C), the figure is 18.3 µM.
As for `CCc1ccc(S(=O)(=O)N2CCC3(CCCN(Cc4c(C)noc4C)C3)C2)cc1` (stereo unspecified), the figure is 22.9 µM; as for `COc1ccccc1-c1nc(CN(c2ccc(C)cc2)S(=O)(=O)c2cccs2)c(C)o1`, 30.4 µM.
Turning to `COc1ccc(CC(=O)Nc2ccc3c(c2)CCC(=O)N3C)c(Cl)c1`, the AC50 is 21.2 µM.
As for `OC[C@@H]1Nc2ccc(C#Cc3ccc(F)cc3)cc2[C@@H]2[C@H]1CCN2Cc1ccc2c(c1)OCO2`, the AC50 was 15.4 µM and 23.4 µM.
For the compound `Cc1ccc(S(=O)(=O)N2CCC3(CC2)NCCN=C3NCc2ccc(Cl)cc2)cc1C`, the half-maximal activity concentration (AC50) is 8.04 µM.
Regarding `O=C(NC1CCCC1)N1CCCCN2[C@H](CO)[C@@H](c3ccc(-c4cccnc4)cc3)[C@H]2C1`, the AC50 was > 39 µM (inactive).
As for `Cc1ccc(CNC2=NCCNC23CCN(S(=O)(=O)c2cc(C)cc(C)c2)CC3)cc1`, the AC50 is 23.4 µM.
As for `CS(=O)(=O)N1CC(=O)N2[C@H](C1)[C@@H](c1ccc(C#Cc3ccc(F)cc3)cc1)[C@@H]2CO`, the figure is 22.8 µM.
As for `COc1ccccc1NC(=O)N1CCCCN2[C@H](CO)[C@@H](c3ccc(-c4cccc(C#N)c4)cc3)[C@@H]2C1`, the figure is 21.5 µM.
For `COc1ccc2c(c1)NC1(CCN(C(=O)Cc3ccc(OC)c(OC)c3)CC1)c1cccn1-2`, the AC50 was > 39 µM (inactive).
With `COc1cccc(S(=O)(=O)N2CCCCN3[C@H](C2)[C@@H](c2ccc(C#CCC(C)C)cc2)[C@@H]3CO)c1` the figure was 15.3 µM.
With `CN1C(=O)c2cc(NC(=O)c3cccc(F)c3)ccc2OC[C@H]2O[C@@H](CC(=O)NCC3CCCCC3)CC[C@H]21`, the concentration at half-maximal activity (AC50) was 18.6 µM and 10.5 µM and 24.5 µM.
On to `N#Cc1cccc(-c2ccc(C3[C@@H]4CN(C(=O)Nc5ccc(C(F)(F)F)cc5)C[C@H]3N4)cc2)c1` (stereo partly specified), for which the AC50 was 5.28 µM.

The values above are taken from PubChem BioAssay AID1259418 (Broad Institute, 2018).
